Paper PMC8777765, “Identification of Cyclic Sulfonamides with an N-Arylacetamide Group as α-Glucosidase and α-Amylase Inhibitors: Biological Evaluation and Molecular Modeling” (Pharmaceuticals, 2022)
pIC50, pKi: −log10 of the molar value.

Experiments:
[1] = molecular target: T1, Aspergillus oryzae α-amylase (Aspergillus oryzae, UniProt P0C1B3); assay: in vitro α-amylase inhibition (starch substrate, DNSA); format: biochemical
T1 construct: purchased Sigma-Aldrich, Munich, Germany
Description: A total of 40 µL of each test sample was pipetted out in 96-well microliter plates. This was mixed with 40 µL of Aspergillus oryzae α-amylase (Sigma-Aldrich, Munich, Germany) solution (prepared in Na2SO4 buffer (0.02 M, pH = 6.9)). Incubation of solutions was executed at 37 °C for 10 min. After incubation, 40 µL of starch solution prepared in 1% DMSO was added into each well as a substrate and placed at 25 °C for 10 min. After this, 100 µL of 3,5-dinitrosalicylic acid (DNSA) was added and incubated for 5 min in boiling water. After cooling and dilution of mixtures with distilled water (400 μL), the absorbance was recorded at 540 nm wavelength [91] and 37 °C temperature with the help of a microplate reader. […] Each experiment was carried out thrice, and percentage inhibitions were determined with the help of following expression, followed by the determination of IC50 values. % Inhibition = [(Acontrol − Asample)/Acontrol] × 100 where A is absorbance.

[2] = tested on: yeast α-glucosidase enzyme; assay: in vitro α-glucosidase inhibition (PNPG substrate); format: biochemical, Saccharomyces cerevisiae; details: for pIC50: PNPG substrate
Description: α-Glucosidase inhibitions were determined following a modified spectroscopic method [87]. A solution of α-glucosidase (obtained from Saccharomyces cerevisiae (Sigma-Aldrich, Munich, Germany)) was prepared in phosphate buffer (pH 6.8, 100 mM). Wells of the 96-well microliter plates were filled with test sample solutions (12.5 μL) prepared in DMSO. After this, enzyme (0.5 U/mL, 40 μL) and then phosphate buffer (100 mM, 120 μL) were also mixed with the test sample solutions. Incubation at 37 °C for 5 min and then addition of 40 μL of the substrate, p-nitrophenyl-α-D-glucopyranoside (PNPG) (5 nM, Sigma-Aldrich, Munich, Germany), was performed. Mixtures were again incubated for 30 min, and absorbance was measured at 405 nm and 37 °C for the released 4-nitrophenol in each mixture. […] Each experiment was carried out thrice, and percentage inhibitions were determined with the help of following expression, followed by the determination of IC50 values. % Inhibition = [(Acontrol − Asample)/Acontrol] × 100 where A is absorbance.

[3] = tested on: severe acute respiratory syndrome coronavirus 2 (SARS-CoV-2); parameters: method as in PMID 33160024; details: cited from earlier work
aldose reductase = molecular target: aldose reductase; parameters: method as in PMID 22036211; details: cited from earlier work
α-amylase = molecular target: T2, α-amylase (Aspergillus oryzae, UniProt P0C1B3); assay: enzyme inhibition kinetics (Lineweaver–Burk), α-amylase; format: biochemical; details: secondary plots; starch 0.25–2%; read-out: Ki (inhibition constant), α-amylase
T2 construct: purchased Sigma-Aldrich, Munich, Germany
Description: (§1) The pattern of the Lineweaver–Burk plot can visualize the type of inhibition, as shown in Figure 6A−F. […] Secondary plots were drawn to determine the value of the inhibition constant Ki and the dissociation constant Ki’. Smaller Ki implies higher enzyme inhibition, implying the possibility of an allosteric binding site in the enzyme, to which synthetic drugs could bind.
(§2) The Lineweaver–Burk equation was used to determine the type of inhibition. α-Glucosidase and α-amylase activities were studied in the absence and presence of various sample concentrations (0.1 mM, 0.25 mM, 0.5 mM, 0.75 mM and 1.0 mM). For α-glucosidase inhibition kinetics, PNPG was used as a substrate, with different concentrations (1 mM, 3 mM, 5 mM, 7 mM and 9 mM). In α-amylase inhibition kinetics, various amounts of starch solution (0.25–2%) were tested. All experiments were carried out in triplicate, and the outcomes were written as mean ± S.D.

α-glucosidase [4] = assay: enzyme inhibition kinetics (Lineweaver–Burk), α-glucosidase; format: biochemical, Saccharomyces cerevisiae; details: secondary plots; PNPG 1–9 mM; read-out: Ki (inhibition constant), α-glucosidase
Description: as §1, §2

[5] = molecular target: human 11β-hydroxysteroid dehydrogenase type 1 (11β-HSD1); parameters: method as in PMID 21212546; details: cited from earlier work
α-glucosidase [6] = molecular target: α-glucosidase; parameters: method as in PMID 32024621; details: read-out: α-glucosidase IC50 (literature); cited from earlier work

Compound | pIC50 [1] | α-glucosidase inhibition (in words) [2] | pIC50 [2] | melting point | further results
COc1cccc(C(=O)C2=C(O)c3ccccc3S(=O)(=O)N2CC(=O)Nc2ccccc2[N+](=O)[O-])c1 [Compound 12d, 2-(4-Hydroxy-3-(3-methoxybenzoyl)-1,1-dioxido-2H-benzo[e][1,2]thiazin-2-yl)-N-(2-nitrophenyl)acetamide] | 4.82 | failed to show any remarkable inhibition | 3.99 | – | –
O=C(CN1C(C(=O)Nc2ccc(F)c(Cl)c2)=C(O)c2ccc(F)cc2S1(=O)=O)Nc1ccc(C(F)(F)F)cc1 [Compound 4] | – | – | – | – | pIC50 [3]: 6.06
O=C(O)/C=C1\CN(Cc2ccc(Br)cc2F)S(=O)(=O)c2ccccc21 [Compound 5] | – | – | – | – | pIC50 (aldose reductase): 6.96
COc1cccc(C(=O)C2=C(O)c3ccccc3S(=O)(=O)N2CC(=O)Nc2ccc([N+](=O)[O-])cc2)c1 [Compound 12f, 2-(4-Hydroxy-3-(3-methoxybenzoyl)-1,1-dioxido-2H-benzo[e][1,2]thiazin-2-yl)-N-(4-nitrophenyl)acetamide] | 4.54 | – | 4.01 | 176 to 177 °C | –
COc1cccc(C(=O)C2=C(O)c3ccccc3S(=O)(=O)N2CC(=O)Nc2ccccc2OC)c1 [Compound 12l, 2-(4-Hydroxy-3-(3-methoxybenzoyl)-1,1-dioxido-2H-benzo[e][1,2]thiazin-2-yl)-N-(2-methoxyphenyl)acetamide] | – | failed to show any remarkable inhibition | 3.96 | – | –
COc1cccc(C(=O)C2=C(O)c3ccccc3S(=O)(=O)N2CC(=O)Nc2ccc(Br)cc2)c1 [Compound 12i, N-(4-Bromophenyl)-2-(4-hydroxy-3-(3-methoxybenzoyl)-1,1-dioxido-2H-benzo[e][1,2]thiazin-2-yl)acetamide] | 5.12 | – | 4.59 | – | pKi (α-amylase): 4.15; pKi (α-glucosidase [4]): 4.00
COc1cccc(C(=O)C2=C(O)c3ccccc3S(=O)(=O)N2CC(=O)Nc2cccc(C)c2)c1 [Compound 12k, 2-(4-Hydroxy-3-(3-methoxybenzoyl)-1,1-dioxido-2H-benzo[e][1,2]thiazin-2-yl)-N-(m-tolyl)acetamide] | 4.17 | – | 4.52 | 150 to 151 °C | –
COc1cccc(C(=O)C2=C(O)c3ccccc3S(=O)(=O)N2CC(=O)Nc2cccc(Cl)c2)c1 [Compound 12b, N-(3-Chlorophenyl)-2-(4-hydroxy-3-(3-methoxybenzoyl)-1,1-dioxido-2H-benzo[e][1,2]thiazin-2-yl)acetamide] | – | failed to show any remarkable inhibition | – | – | –
COc1cccc(C(=O)C2=C(O)c3ccccc3S(=O)(=O)N2CC(=O)Nc2cccc(Br)c2)c1 [Compound 12h, N-(3-Bromophenyl)-2-(4-hydroxy-3-(3-methoxybenzoyl)-1,1-dioxido-2H-benzo[e][1,2]thiazin-2-yl)acetamide] | 3.96 | – | 4.06 | 132 to 133 °C | –
O=C(CN1C(C(=O)Nc2ccccc2)=C(O)c2ccccc2S1(=O)=O)Nc1cccc(C(F)(F)F)c1 [Compound 3] | – | – | – | – | pIC50 [5]: 7.39
COc1cccc(C(=O)C2=C(O)c3ccccc3S(=O)(=O)N2CC(=O)Nc2cccc([N+](=O)[O-])c2)c1 [Compound 12e, 2-(4-Hydroxy-3-(3-methoxybenzoyl)-1,1-dioxido-2H-benzo[e][1,2]thiazin-2-yl)-N-(3-nitrophenyl)acetamide] | 4.43 | failed to show any remarkable inhibition | – | 189 to 190 °C | –
C/C(=N\NC(=O)C1=C(O)c2ccccc2S(=O)(=O)N1)c1ccccc1 [Compound 6] | – | – | – | – | pIC50 (α-glucosidase [6]): 5.41
COc1ccc(NC(=O)CN2C(C(=O)c3cccc(OC)c3)=C(O)c3ccccc3S2(=O)=O)cc1 [Compound 12m, 2-(4-Hydroxy-3-(3-methoxybenzoyl)-1,1-dioxido-2H-benzo[e][1,2]thiazin-2-yl)-N-(4-methoxyphenyl)acetamide] | 3.91 | failed to show any remarkable inhibition | – | 201 to 202 °C | –
C/C(=N\NC(=O)C1=C(O)c2ccccc2S(=O)(=O)N1C)c1ccccc1 [Compound 7] | – | – | – | – | pIC50 (α-glucosidase [6]): 5.38
COc1cccc(C(=O)C2=C(O)c3ccccc3S(=O)(=O)N2CC(=O)Nc2ccccc2Cl)c1 [Compound 12a, N-(2-Chlorophenyl)-2-(4-hydroxy-3-(3-methoxybenzoyl)-1,1-dioxido-2H-benzo[e][1,2]thiazin-2-yl)acetamide] | 4.88 | – | 4.33 | 186 to 187 °C | –
COc1cccc(C(=O)C2=C(O)c3ccccc3S(=O)(=O)N2)c1 [Compound 11, (4-Hydroxy-1,1-dioxido-2H-benzo[e][1,2]thiazin-3-yl)(3-methoxyphenyl)methanone] | 3.83 | failed to show any remarkable inhibition | – | – | –
COc1cccc(C(=O)C2=C(O)c3ccccc3S(=O)(=O)N2CC(=O)Nc2ccccc2C)c1 [Compound 12j, 2-(4-Hydroxy-3-(3-methoxybenzoyl)-1,1-dioxido-2H-benzo[e][1,2]thiazin-2-yl)-N-(o-tolyl)acetamide] | – | failed to show any remarkable inhibition | – | 166 °C | –
COc1cccc(C(=O)C2=C(O)c3ccccc3S(=O)(=O)N2CC(=O)Nc2ccc(Cl)cc2)c1 [Compound 12c, N-(4-Chlorophenyl)-2-(4-hydroxy-3-(3-methoxybenzoyl)-1,1-dioxido-2H-benzo[e][1,2]thiazin-2-yl)acetamide] | 3.90 | – | 4.39 | 146 to 147 °C | –
COc1cccc(C(=O)C2=C(O)c3ccccc3S(=O)(=O)N2CC(=O)Nc2ccccc2Br)c1 [Compound 12g, N-(2-Bromophenyl)-2-(4-hydroxy-3-(3-methoxybenzoyl)-1,1-dioxido-2H-benzo[e][1,2]thiazin-2-yl)acetamide] | 4.93 | – | 4.45 | 169 to 171 °C | –
